Where two headings read alike, the source gives them in different places.
Target: T1, DNA polymerase α (calf thymus pol α) (Bos taurus, UniProt A0AAA9TD94)
T1 construct: gene POLA1; pol α purified from calf thymus
T1 sequence (A0AAA9TD94 1-1441): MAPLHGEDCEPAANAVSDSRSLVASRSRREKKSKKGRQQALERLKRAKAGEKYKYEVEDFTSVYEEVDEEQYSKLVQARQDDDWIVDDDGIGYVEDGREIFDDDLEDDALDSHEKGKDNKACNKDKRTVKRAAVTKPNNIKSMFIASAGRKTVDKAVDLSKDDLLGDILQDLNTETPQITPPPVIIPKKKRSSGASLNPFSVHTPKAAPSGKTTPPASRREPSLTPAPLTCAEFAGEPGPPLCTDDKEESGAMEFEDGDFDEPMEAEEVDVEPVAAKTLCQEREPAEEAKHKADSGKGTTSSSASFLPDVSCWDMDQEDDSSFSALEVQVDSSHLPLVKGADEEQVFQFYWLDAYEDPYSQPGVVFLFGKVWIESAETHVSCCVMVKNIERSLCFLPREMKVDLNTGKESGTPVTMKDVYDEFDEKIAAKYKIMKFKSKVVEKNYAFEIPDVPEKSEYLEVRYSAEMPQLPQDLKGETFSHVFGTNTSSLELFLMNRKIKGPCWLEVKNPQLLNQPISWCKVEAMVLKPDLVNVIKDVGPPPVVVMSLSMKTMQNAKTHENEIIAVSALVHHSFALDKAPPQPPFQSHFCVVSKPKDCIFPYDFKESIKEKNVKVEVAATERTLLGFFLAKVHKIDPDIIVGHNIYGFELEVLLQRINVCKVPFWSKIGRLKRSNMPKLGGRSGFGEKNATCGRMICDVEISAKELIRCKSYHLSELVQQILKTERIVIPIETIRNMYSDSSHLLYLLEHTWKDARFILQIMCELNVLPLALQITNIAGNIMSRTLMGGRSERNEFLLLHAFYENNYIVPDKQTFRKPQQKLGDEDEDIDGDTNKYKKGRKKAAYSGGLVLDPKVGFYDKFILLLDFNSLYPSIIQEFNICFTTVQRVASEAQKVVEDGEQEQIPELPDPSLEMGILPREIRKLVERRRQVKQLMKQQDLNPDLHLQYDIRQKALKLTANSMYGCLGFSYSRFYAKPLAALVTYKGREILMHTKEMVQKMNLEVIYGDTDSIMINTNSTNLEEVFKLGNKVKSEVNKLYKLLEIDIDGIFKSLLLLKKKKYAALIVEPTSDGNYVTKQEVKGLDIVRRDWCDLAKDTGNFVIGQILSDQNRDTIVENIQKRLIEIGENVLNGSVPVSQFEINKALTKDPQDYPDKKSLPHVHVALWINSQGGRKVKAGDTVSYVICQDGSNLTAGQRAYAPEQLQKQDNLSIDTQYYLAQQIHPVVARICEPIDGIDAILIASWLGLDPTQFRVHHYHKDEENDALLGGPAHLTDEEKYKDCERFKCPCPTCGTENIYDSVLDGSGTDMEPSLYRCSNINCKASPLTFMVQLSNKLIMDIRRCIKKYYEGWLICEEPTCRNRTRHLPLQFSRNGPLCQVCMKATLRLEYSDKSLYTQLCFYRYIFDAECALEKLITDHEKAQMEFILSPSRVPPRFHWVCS
Experiment: [3H]-dTTP incorporation polymerase assay on poly(dA)/oligo(dT)[…]-18 with purified pol α
Format: biochemical

Row | Structure (SMILES) | IC50 (read-out: IC50) [µM] | IC50 [µM]
1 | COc1cc(O)c2c(c1)C1=CC(=O)C(O)=CC1(C)OC2=O (stereo not drawn) [compound 1, Dehydroaltenusin] | 9.9 | –
2 | CCCCCCCCCCCCOc1cc(O)c2c(c1)C1=CC(=O)C(O)=CC1(C)OC2=O (stereo not drawn) [compound 2, C12] | 1.4 | –
3 | C[C@@]1(CO)[C@H](O)CC[C@@]2(C)[C@H]1CC[C@H]1C[C@@H]3C[C@@]12CC[C@]3(O)CO [compound 3, aphidicolin] | – | 14.5
